Measurements taken from patent publication US12653862B2, “Anti-senescence compounds and uses thereof” (CLEARA BIOTECH B.V., priority 2020, dated 2026).
“Also recorded” adds a separate entry of the source. Like-named read-outs stand apart in the source and are kept apart here.

Legend:
[1] = system: colon cancer 3D organoids; experiment: Colon cancer 3D organoids, live/dead assay, with chemotherapy; format: cell-based; conditions: for cell death vs cell cycle arrest: colon cancer 3D organoids
Method: (§1) Organoids were grown at 37° C. and 5% CO2 in a humidified incubator. All organoids were cultured in matrigel (Corning) droplets in advanced DMEM/F12 (Lonza) supplemented with 1% glutamax, 1% Penicillin/Streptomycin, 1% (10 mM) HEPES, 10% Noggin conditioned medium, 2% B-27 (50×; (Thermo/Life Technologies), N-acetylcysteine ((Sigma-Aldrich, 1.25 mM)), A83-01 (Tocris, 500 nM) and SB203580 (Invitrogen/Life Technologies, 3 μM). To perform viability and apoptosis assays, the organoids were passaged through resuspension in ice-cold medium, followed by centrifugation in 15 ml tubes at 4° C. The resulting pellet was trypsinized for 5 minutes at 37° C. to obtain single cells and subsequently washed twice with advanced DMEM/F12 media. These cells were then resuspended in Matrigel and plated in 96-well plates in 5 ul droplets. 100 ul fresh medium was added to the wells 15 minutes later. Peptide and chemotherapy treatment was added to the organoids 2 days after plating.
(§2) A Live/dead assay was performed on both larger organoids 3 days after peptide and/or chemotherapy treatment, or on organoids that were treated as single cells and allowed to grow out for 2 weeks before the assay was performed. To perform the assay, Calcein-AM (1:1000) and Propidium Iodide (PI; 1:100) were added to the medium of the organoids to detect living and dead cells respectively. The organoids were then imaged on a Zeiss Cell Observer microscope and the signal was quantified using FIJI.

[2] = Peptide stability in solution; format: physicochemical
Method: Both peptides were dissolved in H2O and kept at room temperature. The peptide concentration was determined for the indicated time points.

[3] = system: GBM8 glioblastoma cells; experiment: Caspase-3/7 activation (apoptosis) in GBM8 glioblastoma cells; format: cell-based
Method: (§3) GBM8 cells were cultured in Dulbecco's Modified Eagle's Medium/Nutrient Mixture F-12 (DMEM F-12), containing high glucose, L-Glutamine, no phenol red, supplemented with 1% (10 mM) HEPES, 1% Penicillin/Streptomycin, 2% B-27 (50×), 5 μg/ml Heparin sodium salt from porcine intestinal mucosa Grade I-A, 20 ng/ml recombinant human Fibroblast Growth Factor (rhFGF) and 20 ng/ml recombinant human Epidermal Growth Factor (rhEGF). These cells were cultured in plastic ware coated with Matrigel Matrix (20× diluted in DMEM F-12) at 37° C., 5% CO2 and 3% O2 in a humified incubator.
(§4) To perform viability and apoptosis assays, cells were split into 96-well plates and treated with peptides 2 days later. Non-senescent and cancer cells were plated 1500 cells/well, while senescent cells were plated at 8.000 cells/well.
(§5) For a caspase assay, Caspase-Glo 3/7 assay reagent (Promega) was added to the medium 2 days after treatment. The plates were then incubated in aluminium foil at room temperature on a shaker for 1 hour and subsequently measured with a Luminescence Plate Reader.

[4] = target: T1, TP53-TAD2 (Homo sapiens, UniProt P04637); experiment: Fluorescence polarization with FITC-labeled TP53-TAD2; format: binding; conditions: FITC-labeled TP53-TAD2 (250 nM), increasing concentrations of peptides
T1 construct: amino acid 37 to 57 (p53-TAD2)
T1 sequence (P04637 37-57 limits assumed): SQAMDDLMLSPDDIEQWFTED
Method: 116 μl of a solution of the specific peptides (ranging from 1 to 100 μM) were prepared. […] 35 μl were then transferred in each well of the 384-well plate. Measurements were performed in triplicates.
Data was acquired on a ClarioStar Plus platereader. Endpoint measurement with 200 flashes per well were performed. An excitation filter with 482 nm wavelength and emission filter with 530 nm were used and gain adjustment as well as focal height adjustment were performed for each measurement. Fluorescence intensity, parallel fluorescence polarization and perpendicular fluorescence polarization were recorded.
Data analysis was performed using MARS Version 3.4 (BMG), Microsoft Excel and GraphPad Prism Version 8.

[5] = system: colon carcinoma 3D organoid cultures; experiment: Colon carcinoma 3D organoid cultures; format: cell-based
Method: as §1

[6] = system: GBM8 glioblastoma cells; experiment: Loss of LDH (cell death) in GBM8 glioblastoma cells; format: cell-based; conditions: GBM8, vs FOXO4-DRI
Method: as §3, §4

[7] = system: Caspase-3/7 activation; experiment: Live imaging of Caspase-3/7 activation over time; format: cell-based
Method: Organoids and IMR90 cells were grown in 96-well cell culture plates and either the 488 IncuCyte Caspase 3/7 Reagent For Apoptosis (Sartorius) or the IncuCyte Caspase 3/7 red apoptosis assay reagent (Essen Bioscience) was added to the wells. Peptides were added directly before the plate was transferred to a Zeiss Cell Observer microscope that contains a Heat and CO2-controlled compartment. Subsequently, live imaging was started where a picture was recorded every 2 hours for 60 hours. Images were processed using Zen imaging software (Zeiss).

[8] = system: normal wildtype colon organoids; experiment: Normal wildtype colon organoids, with or without APC depletion; format: cell-based
Method: as §1

[9] = system: WI38 cells; experiment: Apoptosis in healthy WI38 cells; format: cell-based, Human; conditions: FIG. 9C
Method: (§6) Human IMR90, WI38 and RPE cells were grown in Dulbecco's Modified Eagle's Medium (DMEM; Lonza) containing 10% FCS and 1% pen/strep at 37° C. with 3.0% 02 and 5.0% CO2. To induce senescence, cells were irradiated with 10Gy ionizing radiation (Gammacell 1000) and were left for a minimum of 10 days to become senescent.
as §4, §5

[10] = system: IMR90 lung fibroblasts; experiment: Caspase-3/7 apoptosis assay in senescent vs healthy control IMR90 cells; format: cell-based, Human; conditions: for apoptosis induction by Caspase-3/7 activation, senescent vs healthy control cells: IMR90, FOXO4-DRI as control
Method: as §6, §4, §5

[11] = system: 3D colon organoids; experiment: Outgrowth of 3D colon organoids after peptide exposure; format: cell-based
Method: as §1
as §2, with “To perform the assay, Calcein-AM (1:1000) and Propidium Iodide (PI; 1:100) were added to the medium of the organoids to detect living and dead cells respectively.” left out

[12] = system: MCF10 cells; experiment: Caspase assay in senescent human breast epithelial MCF10 cells; format: cell-based; conditions: 2 days, vs FOXO4-DRI/CL03001
Method: as §5

[13] = target: T2, full-length TP53 (Homo sapiens, UniProt P04637); experiment: Streptavidin bead pull-down of endogenous TP53 from HEK293T lysates with biotinylated peptide; format: binding; conditions: streptavidin beads, HEK293T cell lysates, vs FOXO4-DRI
T2 construct: endogenous TP53 from lysates ofHEK293T cells; endogenous in cells; host or cells: HEK293T
T2 sequence (P04637 whole entry): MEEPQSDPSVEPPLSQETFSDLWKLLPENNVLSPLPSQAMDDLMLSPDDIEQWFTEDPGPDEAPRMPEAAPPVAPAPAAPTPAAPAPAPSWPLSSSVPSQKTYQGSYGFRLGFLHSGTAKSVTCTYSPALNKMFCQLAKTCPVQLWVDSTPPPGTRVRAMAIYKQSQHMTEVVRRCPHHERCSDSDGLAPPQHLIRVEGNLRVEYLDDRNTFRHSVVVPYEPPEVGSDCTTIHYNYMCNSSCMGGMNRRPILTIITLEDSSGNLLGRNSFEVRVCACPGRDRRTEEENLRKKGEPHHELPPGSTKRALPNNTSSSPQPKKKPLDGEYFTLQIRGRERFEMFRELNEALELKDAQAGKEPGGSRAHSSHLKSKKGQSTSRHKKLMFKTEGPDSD

[14] = system: WT colon and tumor progression (TPO) organoids; experiment: Cell viability of WT colon and tumor progression (TPO) organoids; format: cell-based; conditions: increasing concentrations, measured 5 days later
Method: as §1

For `O=c1[nH]cc(F)c(=O)[nH]1` [SFU, 5-fluorouracil, reference compound], which “cell death vs cell cycle arrest” value [1] is on record?
Its value is “merely causes a cell cycle arrest”.

With AKIEAAILDAFSQNBRKRRRRQRRKKRG [CL05114] as the compound, how does the stability in solution [2] read?
The stability in solution was “superior stability”.

What does the source list for “RKKASSKIAAAILDAFSQNAWANRRSSCKRP (listed as Homo sapiens) [CL04022]”?
Caspase3/-7 activation (apoptosis), potency ([3]; GBM8, vs FOXO4-DRI): more potent than FOXO4-DRI; apoptosis induction ([3]; GBM8 glioblastoma cells, FIG. 9C): induce apoptosis in GBM8 glioblastoma cells; stability, peptide concentration over time ([2]; dissolved in H2O, room temperature, multiple days): more stable than CL04009; stability in solution ([2]; in solution): improved stability in solution; binding of TP53-TAD by fluorescence polarization [4]: more potent in binding TP53-TAD than the reference compound; efficacy against organoid cultures ([5]; one Microsatellite stable (MSS) line): ineffective; selectivity, patient-derived colorectal cancers vs healthy control samples ([5]; patient-derived samples): selective; efficacy against organoid cultures ([5]; two microsatellite-unstable (MSI) lines): effective; loss of LDH (cell death), potency [6]: more potent than FOXO4-DRI; full Caspase-3/7 activation complete [7]: 60 h; start of Caspase-3/7 activation after administration [7]: 24 h; potency against organoids ([8]; normal wildtype colon organoids): less potency; efficacy against organoids ([8]; organoids depleted for APC): effective; efficacy in organoids that survived chemotherapy ([1]; after 5′FluoroUracil or Oxaliplatin): more effective; cell death vs cell cycle arrest [1]: induces cell death, not merely causes a cell cycle arrest; apoptosis induction [9]: not in healthy Wi38 cells; apoptosis induction by Caspase-3/7 activation, senescent vs healthy control cells [10]: still better than the control

Which stability in solution [2] does the source give for “RKKASSKIAAAILDAFSQNAWANRRSSCKRPPPRRRQRRKKRA (listed as Homo sapiens) [SEQ ID NO: 23]” here?
The stability in solution was “improved stability in solution”.

For “RKKASSKIAAAILDAFSQNGWANRRSSCKRP (listed as Homo sapiens) [CL04009]”, which “tumor outgrowth of organoids” value ([11]; 14 d after exposure) is on record?
The value was “no more tumor outgrowth”.

And the “cytotoxic vs cytostatic effect” value ([11]; colon organoids)?
The value was “cytotoxic on colon organoids and not just cytostatic”.

What about the “apoptosis induction (caspase assay), potency” value [12] of the same compound?
Its value is “more potent in inducing apoptosis”.

What about the “apoptosis induction by Caspase-3/7 activation, senescent vs healthy control cells” value [10] of the same compound?
The value was “superior selectivity to induce apoptosis by Caspase-3/7 activation in senescent, but not healthy control IMR90 lung fibroblasts; also recorded: very potent and selective capacity to induce apoptosis in senescent”.

What about the “effective concentration (potency)” value ([10]; IMR90, compared with FOXO4-DRI) of the same compound?
The value was “effective at a lower concentration”.

What about the “pull-down of endogenous TP53 (binding to full-length TP53)” value [13] of the same compound?
The value was “potent in binding recombinant TP53-TAD2 and full-length TP53”.

Which “apoptosis induction by Caspase-3/7 activation, senescent vs healthy control cells” value [10] does the source give for “RKKASSKIAAAILDAFSQNWRRKR (listed as Homo sapiens) [CL04088]” here?
The value was “superior to peptide CL04022”.

For “RKKASSKIEAAILDAFSQNWRRKRPPRRRQRRKKRG (listed as Homo sapiens) [CL04124]”, which “cell viability, sensitivity of organoids with colorectal cancer associated mutations” value [14] is on record?
The value was “sensitizes to FOXO4-based peptides, dependent on p53”.
